Test results from PMC4850295, “Using a Genetically Encoded Sensor to Identify Inhibitors of Toxoplasma gondii Ca^2+ Signaling” (The Journal of Biological Chemistry, 2016).

System: T1, GCaMP5-expressing T. gondii
T1 construct: whole extracellular parasites expressing GCaMP5 Ca2+ sensor
Set-up: species or system GCaMP5-expressing Toxoplasma gondii, extracellular; GCaMP5 fluorescence (cytosolic Ca2+) after 100 uM zaprinast in compound-pretreated extracellular parasites, background-subtracted, relative to zaprinast alone
Details: 100 uM zaprinast stimulation; 10 min pretreatment; mean of two replicates; 0.23 h
In short: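 Extracellular GCaMP5-expressing parasites in Ringer's solution were pretreated with compounds (single 10 μM dose, two biological replicates) for 10 min, then stimulated with 100 μM zaprinast at 37 °C for 4 min. Fluorescence read at 485/525 nm, basal subtracted, expressed as fold change relative to zaprinast-only parasites.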

Compound	fold change in fluorescence relative to zaprinast alone
CNC(=O)c1ncccc1Nc1nc(Nc2cc3c(cc2OC)CCCN3C(=O)CN(C)C)nc2[nH]ccc12 [GSK2220400A]	1.127
CC(C)Nc1cc(-c2ccc3c(N)n[nH]c3c2)nc(N)n1 [GSK2221681A]	1.173
Nc1nc(Nc2ccccc2)cc(-c2ccc3c(N)n[nH]c3c2)n1 [GSK2225749A]	1.117
Nc1nc(-c2ccc3c(N)n[nH]c3c2)cc(N2CCCC2)n1 [GSK2227430A]	1.158
Nc1nc(-c2ccc3c(N)n[nH]c3c2)cc(N2CCCCC2)n1 [GSK2228768A]	0.9677
O=c1[nH]cc(-c2ccc(N3CCOCC3)cc2)c2sc(-c3cn[nH]c3)cc12 [GSK2276055A]	0.8496
C[C@@H]1CC[C@@H](C(=O)Nc2ccccc2)CN1c1cc(-c2ccc3c(N)n[nH]c3c2)nc(N)n1 [GSK2286062A]	0.9223
Nc1nc(-c2ccc3c(N)n[nH]c3c2)cc(N2CCCC(NC(=O)c3ccccc3)C2)n1 (stereo not drawn) [GSK2286775B]	1.202
C[C@@H]1CC[C@H](C(=O)NC2CCCCC2)CN1c1cc(-c2ccc3c(N)n[nH]c3c2)nc(N)n1 [GSK2291363A]	1.384
O=c1cc(N2CCOCC2)nc2n(Cc3cccc(C(F)(F)F)c3)ccn12 [GSK2297543A]	0.8956
O=c1cc(N2CCOCC2)nc2n(Cc3cccc(Cl)c3Cl)c3ccccc3n12 [GSK2299009A]	1.093
Cc1c(Cn2c3ccccc3n3c(=O)cc(N4CCOCC4)nc23)cccc1C(F)(F)F [GSK2306394A]	0.7248
Cc1nn2c(=O)cc(N3CCOC(C)C3)nc2n1Cc1cccc(Cl)c1Cl (stereo not drawn) [GSK2373693A]	0.7316
CNc1nc(-c2ccc3c(N)n[nH]c3c2)cc(N2C[C@@H](C(=O)NC3CCCCC3)OC[C@H]2C)n1 [GSK2375584A]	1.379
Nc1nccc2scc(-c3ccc4c(c3)CCN4C(=O)Cc3ccccc3)c12 [GSK2576924A]	0.9278
Nc1nccc2scc(-c3ccc4c(c3)CCN4C(=O)Cc3cc(F)ccc3F)c12 [GSK2587663A]	0.7245
Nc1ncc(-c2ccncc2)c2scc(-c3ccc4c(c3)CCN4C(=O)Cc3ccccc3)c12 [GSK2592465A]	1.243
Nc1ncc(-c2cn[nH]c2)c2scc(-c3ccc4c(c3)CCN4C(=O)Cc3ccccc3)c12 [GSK2593067A]	1.414
Cn1cc(-c2cnc(N)c3c(-c4ccc5c(c4)CCN5C(=O)Cc4ccccc4)csc23)cn1 [GSK2593074A]	1.463
Cc1ccccc1CC(=O)N1CCc2cc(-c3cn(C)c4ncnc(N)c34)ccc21 [GSK2603346A]	1.278
Cn1cc(-c2ccc3c(c2)CCN3C(=O)Cc2cccc(F)c2)c2c(N)ncnc21 [GSK2603358A]	1.56

Compound	fold change in fluorescence relative to zaprinast alone
Cn1cc(-c2ccc3c(c2)CCN3C(=O)Cc2cccc(Cl)c2)c2c(N)ncnc21 [GSK2606590A]	1.488
Cn1cc(-c2ccc3c(c2)CCN3C(=O)Cc2ccccc2Cl)c2c(N)ncnc21 [GSK2608885A]	1.437
COc1cccc(CC(=O)N2CCc3cc(-c4cn(C)c5ncnc(N)c45)ccc32)c1 [GSK2608899A]	0.9364
Cc1ccc(CC(=O)N2CCc3cc(-c4cn(C)c5ncnc(N)c45)ccc32)cc1 [GSK2634758A]	1.068
Nc1ncnc2occ(-c3ccc4c(c3)CCN4C(=O)Cc3cc(F)ccc3F)c12 [GSK2645446A]	0.8883
c1ccc(Cn2cnc3cc(Nc4ncnc5ccccc45)ccc32)cc1 [GW272142A]	1.177
NS(=O)(=O)c1cccc(N/C=C2\C(=O)Nc3ccccc32)c1 [GW275616X]	0.9797
Cc1ccc2c(c1)/C(=N/Nc1ccc(S(N)(=O)=O)cc1)C(=O)N2 [GW275944X]	1.616
NS(=O)(=O)c1ccc(N/N=C2\C(=O)Nc3ccc(-c4cnco4)cc32)cc1 [GW276655X]	1.083
CS(=O)(=O)Nc1ccc(N/C=C2\C(=O)Nc3ccccc32)cc1 [GW278681X]	1.254
Cc1cc(Cl)cc2c1NC(=O)C2=NNc1ccc(S(N)(=O)=O)cc1 [GW279320X]	1.035
NS(=O)(=O)c1ccc(N/N=C2\C(=O)Nc3ccc(Cl)cc32)cc1 [GW280670X]	0.9881
Cn1cncc1-c1cc2c(Nc3ccc(OCc4ccccc4)cc3)ncnc2cn1 [GW281179X]	1.036
COc1cc2ncnc(Nc3ccc4c(cnn4Cc4ccccc4)c3)c2cc1OC [GW282449A]	1.119
COc1cc2ncnc(Nc3ccc4nc(-c5ccccc5)[nH]c4c3)c2cc1OC [GW282450A]	0.9024
Cc1cccc2c1NC(=O)/C2=N\Nc1ccc(S(N)(=O)=O)cc1 [GW282536X]	1.189
c1ccc(COc2ccc(Nc3ncnc4ccc(-c5ccco5)cc34)cc2)cc1 [GW284372X]	0.7189
O=C1Nc2ccccc2/C1=C/Nc1ccc2[nH]c(=O)[nH]c2c1 [GW284408X]	0.9722
NS(=O)(=O)c1ccc(N/N=C2\C(=O)Nc3ccc(C(=O)NCCCn4ccnc4)cc32)cc1 [GW290597X]	1.214
COc1ccc2[nH]c3c4[nH]c5ccc(OC)cc5c4c4c(c3c2c1)C(=O)NC4=O [GW296115X]	0.5167
NS(=O)(=O)c1ccc(N/C=C2\C(=O)Nc3ccc4ncsc4c32)cc1 [GW297361X]	1.167

Compound	fold change in fluorescence relative to zaprinast alone
NS(=O)(=O)c1ccc(N/N=C2\C(=O)Nc3ccc(C(=O)NCCc4c[nH]cn4)cc32)cc1 [GW300660X]	1.243
O=C1Nc2ccccc2/C1=C/Nc1ccc(-n2cncn2)cc1 [GW301789X]	1.111
CN(C)c1cc2c(Nc3ccc4nc(Cc5ccccc5)[nH]c4c3)ncnc2cn1 [GW301888X]	1.125
NS(=O)(=O)c1ccc(N/N=C2\C(=O)Nc3ccc4ncccc4c32)cc1 [GW305178X]	0.9853
Cn1cncc1-c1ccc2ncnc(Nc3ccc(OCc4ccccc4)cc3)c2c1 [GW320571X]	0.8423
C/C(Nc1ccc(S(N)(=O)=O)cc1)=C1/C(=O)Nc2ccccc21 [GW335962X]	1.108
CCn1cnc2c(N)ncnc21 [GW345098X]	1.056
NS(=O)(=O)c1ccc(N/N=C2\C(=O)Nc3cccc(CCc4ccncc4)c32)cc1 [GW352430A]	1.031
O=C1Nc2ccc(C(=O)c3ccco3)cc2C1=Cc1cc(Cl)c(O)c(Cl)c1 [GW406108X]	1.311
COC(=O)c1cncc(/C=C/c2c(C)cc(O)cc2C)c1 [GW406731X]	0.8759
c1ccc(Oc2ccc(Nc3ccnc4ccc(-c5ccccn5)cc34)cc2)cc1 [GW407034X]	0.6551
COc1cc2ncnc(Nc3ccc(C)c(O)c3)c2cc1OC [GW410563A]	1.297
CN(C)c1ccc2c(c1)/C(=C/Nc1ccc(S(N)(=O)=O)cc1)C(=O)N2 [GW416469X]	1.109
CC(C)COC(=O)c1ccc2c(c1)/C(=C/Nc1ccc(S(N)(=O)=O)cc1)C(=O)N2 [GW416981X]	1.146
Cc1cc(O)cc(C)c1/C=C/c1cncc(C(=O)N(C)C)c1 [GW427984X]	1.241
O=C1Nc2ccc(-c3cccnc3)cc2C1=Cc1cc(Br)c(O)c(Br)c1 [GW429374A]	1.179
CNC(=O)Oc1cc(C)c(/C=C/c2cncc(C(=O)NC)c2)c(C)c1 [GW432441X]	1.157
Fc1ccc(-c2nn3ccccc3c2-c2ccncc2)cc1 [GW434756X]	0.1696
Cc1cc(O)cc(C)c1/C=C/c1cncc(C(N)=O)c1 [GW435821X]	1.076
Cc1cc(O)cc(C)c1/C=C/c1cncc(C(=O)OC(C)(C)C)c1 [GW439255X]	1.014
COc1cc2nccc(Nc3ccc(OCc4ccc(NC(C)=O)cc4)cc3)c2cc1OC [GW440135A]	1.118
